Columns and labels:
[1] = system: nutrient protein (lysine) in the presence of reducing sugars; assay: Inhibition of nutrient protein glycation, in vitro, absorbance by spectrophotometer
Description: Percentage inhibition was determined using an in vitro experiment. Lysine was used to simulate the nutrient protein.
In one embodiment of the present application, glycation is induced in the nutrient proteins by combining them with different types of sugars and thermally processing the combination at various temperatures and with various levels of alkalinity. The processing is repeated by adding the identified glycation inhibitor. The nutrient protein in this case could be lysine or any other nutrient protein in liquid, semisolid or solid form.
(§1) The effectiveness of the inhibiting agents and their combinations were ascertained using a series of in vitro experiments with nutrient lysine or collage protein, various sugars, natural polyunsaturated fatty acids and monounsaturated fatty acids and natural, pure form of inhibiting agents in extract forms. Absorbance values, measured using a spectrophotometer, were used to determine and compare formation of glycated proteins. Industry standard iodometric titration was used to determine and compare peroxidation levels in lipids.
(§2) In the case of inhibition of nutrient protein glycation and nutrient lipid peroxidation for disease prevention, it is recommended that the amount of inhibiting agent to be combined with the nutrient protein or nutrient lipid be as shown in the Table 1. Further, a combination of such inhibiting agents could be applied to increase the effectiveness of inhibition.

[2] = system: nutrient lipid (PUFA, MUFA) peroxidation; assay: Inhibition of nutrient lipid peroxidation, in vitro, iodometric titration
Description: Percentage inhibition was determined using an in vitro experiment. Olive oil, a polyunsaturated fatty acid (PUFA) and safflower oil, a monounsaturated fatty acid (MUFA) were used to simulate nutrient lipids.
In another embodiment, peroxidation is induced in nutrient lipids by thermally processing them at various temperatures and with various levels of alkalinity. The processing is repeated by adding the identified peroxidation inhibitor. The nutrient lipid in this case could be polyunsaturated fatty acid or monounsaturated fatty acid in liquid, semisolid or solid form.
as §1, §2

[3] = system: nutrient protein (lysine); assay: Effect of temperature on protein glycation, in vitro, spectrophotometer; conditions: for % decrease in AGE formation from 100 to 60 deg C.: protein glycation
Description: (§3) In one embodiment of the present application, glycation is induced in the nutrient proteins by combining them with different types of sugars and thermally processing the combination at various temperatures and with various levels of alkalinity. The processing is repeated by adding the identified glycation inhibitor. The nutrient protein in this case could be lysine or any other nutrient protein in liquid, semisolid or solid form. In the context of this invention, thermal processing implies heating the food at various temperatures using any method of cooking such as baking, roasting, frying, boiling, etc. […] The effectiveness of the inhibiting agents and their combinations were ascertained using a series of in vitro experiments with nutrient lysine or collage protein, various sugars, natural polyunsaturated fatty acids and monounsaturated fatty acids and natural, pure form of inhibiting agents in extract forms. Absorbance values, measured using a spectrophotometer, were used to determine and compare formation of glycated proteins. Industry standard iodometric titration was used to determine and compare peroxidation levels in lipids.

[4] = system: nutrient protein (lysine); assay: Effect of pH variation on protein glycation, in vitro, spectrophotometer; conditions: for % decrease om AGE formation with decreasing pH: protein glycation
Description: as §3

| Compound | Concentration needed for 50% inhibition, Protein Glycation [1] | Concentration needed for 50% inhibition, Lipid Peroxidation [2] | Absorbance at different temperatures ([3]; 60 deg C.) | Absorbance at different temperatures ([3]; 80 deg C.) | Absorbance at different temperatures ([3]; 100 deg C.) | % decrease in AGE formation from 100 to 60 deg C. [3] | Absorbance at different pH values ([4]; pH 8) | Absorbance at different pH values ([4]; pH 10) | Absorbance at different pH values ([4]; ph 4) | % decrease om AGE formation with decreasing pH [4] |
| --- | --- | --- | --- | --- | --- | --- | --- | --- | --- | --- |
| O=C1O[C@H]([C@@H](O)CO)C(O)=C1O [Antioxidant (Ascorbic Acid), Ascorbic Acid] | 7% | 11% |  |  |  |  |  |  |  |  |
| NC(=O)c1cccnc1 [Antioxidant (Niacinamide), Niacinamide] | 15% | 13% |  |  |  |  |  |  |  |  |
| O=C(O[C@@H]1Cc2c(O)cc(O)cc2O[C@@H]1c1cc(O)c(O)c(O)c1)c1cc(O)c(O)c(O)c1 [Catechin (EGCG), EGCG] | 13% | 9% |  |  |  |  |  |  |  |  |
| NCCC(=O)N[C@@H](Cc1cnc[nH]1)C(=O)O [Chelating agent (Carnosine), Carnosine] | 16% | 12% |  |  |  |  |  |  |  |  |
| O=C(CO)[C@@H](O)[C@H](O)[C@H](O)CO [Fructose] |  |  | 0.1 | 0.37 | 0.5 | 79.1% | 0.5 | 0.65 | 0.07 | 89.4% |
| OC[C@H]1O[C@@H](O[C@H]2[C@H](O)[C@@H](O)C(O)O[C@@H]2CO)[C@H](O)[C@@H](O)[C@H]1O (some centres unmarked) [Lactose] |  |  | 0.06 | 0.18 | 0.17 | 67.9% | 0.17 | 0.22 | 0.02 | 90.8% |
| OC[C@H]1O[C@H](O[C@H]2[C@H](O)[C@@H](O)[C@H](O)O[C@@H]2CO)[C@H](O)[C@@H](O)[C@@H]1O [Maltose] |  |  | 0.04 | 0.22 | 0.22 | 80.0% | 0.22 | 0.26 | 0.04 | 84.4% |
| Oc1ccc(C=Cc2cc(O)cc(O)c2)cc1 [Phenol (Resveratrol), Resveratrol] | 10% | 8% |  |  |  |  |  |  |  |  |
| O=C[C@H](O)[C@H](O)[C@H](O)CO [Ribose] |  |  | 0.13 | 0.52 | 0.59 | 78.1% | 0.59 | 0.79 | 0.09 | 88.4% |
| Tocopherol [Antioxidant (Tocopherol)] | 17% | 15% |  |  |  |  |  |  |  |  |

Reference: patent US9827236B2, “Method of inhibiting the glycation of nutrient and endogenous proteins and peroxidation of nutrient and endogenous lipids” (priority 2014, dated 2017)
